Data: PubChem BioAssay AID1259407 (Chemical Carcinogenesis Research Information System (CCRIS), 2018)
The source made the active and inactive calls. No rule for the calls is given here.

Test system: CCRIS mutagenicity, Ames/micronucleus/aberration tests
Experiment: CCRIS mutagenicity studies
Conditions: Test System: AMES SALMONELLA TYPHIMURIUM, Method: STANDARD PLATE

Measured: mutagenic call

O=C1CCC2(O)c3c(ccc(O)c31)-c1ccc(O)c3c1C2C1OC1C3=O (stereo unspecified)
active: Strain/Indicator: TA98, Metabolic Activation: NONE active; positive | Strain/Indicator: TA98, Metabolic Activation: RAT, LIVER, S-9, AROCLOR 1254 active; positive | Strain/Indicator: TA100, Metabolic Activation: NONE active; positive | Strain/Indicator: TA100, Metabolic Activation: RAT, LIVER, S-9, AROCLOR 1254 active; positive | Strain/Indicator: TA1537, Metabolic Activation: NONE active; positive | Strain/Indicator: TA1537, Metabolic Activation: RAT, LIVER, S-9, AROCLOR 1254 active; positive
